{"source": "patent US20170121315A1", "about": "“HETEROBICYCLICALLY SUBSTITUTED 4-OXOBUTANE ACID DERIVATIVES AND USE THEREOF” (priority 2014, published 2017)", "data": [{"system": "rat hepatocytes", "test": "Hepatocyte assay for determination of metabolic stability", "format": "in vitro ADME", "settings": "after incubation with rat hepatocytes", "experimental": "The metabolic stability of test compounds towards hepatocytes is determined by incubating the compounds at low concentrations (preferably below or around 1 μM) and at low cell counts (preferably at 1*10^6 cells/ml) in order to ensure maximum linearity of kinetic conditions in the experiment. Seven samples from the incubation solution are taken for the LC-MS analysis within a fixed time pattern, in order to determine the half-life (i.e. the degradation) of the particular compound. This half-life is used to calculate various “Clearance” parameters (CL) and “Fmax” values (see below).\nThe CL and Fmax values are a measure of the phase 1 and phase 2 metabolism of the compounds in the hepatocytes. In order to minimize the influence of the organic solvent on the enzymes in the incubation batches, the concentration thereof is generally limited to 1% (acetonitrile) or 0.1% (DMSO).\nFor all species and breeds, a hepatocyte cell count in the liver of 1.1*10^8 cells/g of liver is expected.", "units": {"CLblood (calculated blood clearance, well-stirred)": "mL/min/kg", "Fmax (maximum possible bioavailability after oral administration, well-stirred)": "%"}, "values": [{"smiles": "O=C(CC(CCn1nnc2ccccc2c1=O)C(=O)O)c1noc2cc(OCC3CCOCC3)ccc12", "note": "(racemic) [Example 133, (+/−)-4-Oxo-2-[2-(4-oxo-1,2,3-benzotriazin-3(4H)-yl)ethyl]-4-[6-(tetrahydro-2H-pyran-4-ylmethoxy)-1,2-benzoxazol-3-yl]butanoic acid]", "CLblood (calculated blood clearance, well-stirred)": 13.3, "Fmax (maximum possible bioavailability after oral administration, well-stirred)": 81.1}]}, {"target": "T1, human macrophage elastase (HME/hMMP-12) (Homo sapiens, UniProt P39900)", "T1 construct": "purchased R&D Systems 917-MP", "T1 sequence (P39900 106-470)": "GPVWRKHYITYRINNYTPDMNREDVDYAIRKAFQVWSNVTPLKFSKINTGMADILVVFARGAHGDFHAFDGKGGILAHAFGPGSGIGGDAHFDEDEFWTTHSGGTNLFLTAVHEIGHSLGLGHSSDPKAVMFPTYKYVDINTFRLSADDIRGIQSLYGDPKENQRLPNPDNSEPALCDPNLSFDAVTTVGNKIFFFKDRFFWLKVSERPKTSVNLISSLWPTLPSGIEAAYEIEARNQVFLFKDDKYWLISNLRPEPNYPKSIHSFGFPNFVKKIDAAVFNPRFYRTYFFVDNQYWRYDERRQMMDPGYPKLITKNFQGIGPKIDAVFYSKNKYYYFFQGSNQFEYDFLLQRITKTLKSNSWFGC", "test": "In vitro HME inhibition test (standard or high-sensitivity)", "format": "biochemical", "settings": "in some cases mean values, rounded to two significant figures", "method_in_brief": "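Autoactivated HME (0.5 nM; high-sensitivity format 0.05 nM, ~16 h) with 5 μM quenched Mca-PLGLEEA-Dap(Dnp)-NH2 substrate in HEPES pH 7.4, NaCl, CaCl2, ZnCl2, EDTA, Brij buffer, 2 h at 37° C. Fluorescence at ex 323/em 393 nm; IC50 from signal versus concentration.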", "units": {"IC50": "nM"}, "values": [{"smiles": "O=C(CC(CCn1nnc2ccccc2c1=O)C(=O)O)c1noc2cc(OCC3CCOCC3)ccc12", "note": "(racemic) [Example 133, (+/−)-4-Oxo-2-[2-(4-oxo-1,2,3-benzotriazin-3(4H)-yl)ethyl]-4-[6-(tetrahydro-2H-pyran-4-ylmethoxy)-1,2-benzoxazol-3-yl]butanoic acid]", "IC50": 0.24}, {"smiles": "O=C(CC(CCn1nnc2ccccc2c1=O)C(=O)O)c1coc2cc(OCC3CCOCC3)ccc12", "note": "(racemic) [Example 95, (+/−)-4-Oxo-2-[2-(4-oxo-1,2,3-benzotriazin-3(4H)-yl)ethyl]-4-[6-(tetrahydro-2H-pyran-4-ylmethoxy)-1-benzofur-3-yl]butanoic acid]", "IC50": 0.6}, {"smiles": "CCCCCCCOc1ccc2c(C(=O)CC(CCn3nnc4ccccc4c3=O)C(=O)O)coc2c1", "note": "(single isomer, unassigned; (+)) [Example 103, (+)-4-[6-(Heptyloxy)-1-benzofur-3-yl]-4-oxo-2-[2-(4-oxo-1,2,3-benzotriazin-3(4H)-yl)ethyl]butanoic acid acid]", "IC50": 0.23}, {"smiles": "O=C(CC(CCn1nnc2ccccc2c1=O)C(=O)O)c1noc2cc(OCc3cccc(Cl)c3)ccc12", "note": "(racemic) [Example 146, (+/−)-4-{6-[(3-Chlorobenzyl)oxy]-1,2-benzoxazol-3-yl}-4-oxo-2-[2-(4-oxo-1,2,3-benzotriazin-3(4H)-yl)ethyl]butanoic acid]", "IC50": 1.1}, {"smiles": "O=C(CC(CCn1nnc2ccccc2c1=O)C(=O)O)c1cc2cc(OCc3ccc(Cl)c(Cl)c3)ccc2o1", "note": "(racemic) [Example 25, (+/−)-4-{5-[(3,4-Dichlorobenzyl)oxy]-1-benzofur-2-yl}-4-oxo-2-[2-(4-oxo-1,2,3-benzotriazin-3(4H)-yl)ethyl]butanoic acid]", "IC50": 0.2}, {"smiles": "O=C(CC(CCn1nnc2ccccc2c1=O)C(=O)O)c1cc2ccc(OCCCC(F)(F)F)cc2s1", "note": "(racemic) [Example 120, (+/−)-4-Oxo-2-[2-(4-oxo-1,2,3-benzotriazin-3(4H)-yl)ethyl]-4-[6-(4,4,4-trifluorobutoxy)-1-benzothiophen-2-yl]butanoic acid]", "IC50": 3.6}, {"smiles": "O=C(CC(CCn1nnc2ccccc2c1=O)C(=O)O)c1cc2cc(OCC3CCCC3)ccc2o1", "note": "(single isomer, unassigned; enantiomer 1) [Example 17, (−)-4-[5-(Cyclopentylmethoxy)-1-benzofur-2-yl]-4-oxo-2-[2-(4-oxo-1,2,3-benzotriazin-3(4H)-yl)ethyl]butanoic acid (enantiomer 1)]", "IC50": 94}, {"smiles": "CCCCCCOc1ccc2cc(C(=O)CC(CCn3nnc4ccccc4c3=O)C(=O)O)oc2c1", "note": "(racemic) [Example 64, (+/−)-4-[6-(Hexyloxy)-1-benzofur-2-yl]-4-oxo-2-[2-(4-oxo-1,2,3-benzotriazin-3(4H)-yl)ethyl]butanoic acid]", "IC50": 2.9}, {"smiles": "CCCCCCOc1ccc2c(C(=O)CC(CCn3nnc4ccccc4c3=O)C(=O)O)coc2c1", "note": "(racemic) [Example 98, (+/−)-4-[6-(Hexyloxy)-1-benzofur-3-yl]-4-oxo-2-[2-(4-oxo-1,2,3-benzotriazin-3(4H)-yl)ethyl]butanoic acid]", "IC50": 0.4}, {"smiles": "COc1ccc2cc(C(=O)CC(CCn3nnc4ccc(C(F)(F)F)cc4c3=O)C(=O)O)sc2c1", "note": "(racemic) [Example 131, (+/−)-4-(6-Methoxy-1-benzothiophen-2-yl)-4-oxo-2-{2-[4-oxo-6-(trifluoromethyl)-1,2,3-benzotriazin-3(4H)-yl]ethyl}butanoic acid]", "IC50": 1.2}, {"smiles": "CCCOc1ccc2cc(C(=O)CC(CCn3nnc4ccccc4c3=O)C(=O)O)sc2c1", "note": "(racemic) [Example 116, (+/−)-4-Oxo-2-[2-(4-oxo-1,2,3-benzotriazin-3(4H)-yl)ethyl]-4-(6-propoxy-1-benzothiophen-2-yl)butanoic acid]", "IC50": 4.2}, {"smiles": "O=C(CC(CCn1nnc2ccccc2c1=O)C(=O)O)c1cc2cc(OCC3CCCCC3)ccc2o1", "note": "(single isomer, unassigned; enantiomer 2) [Example 10, (+)-4-[5-(Cyclohexylmethoxy)-1-benzofur-2-yl]-4-oxo-2-[2-(4-oxo-1,2,3-benzotriazin-3(4H)-yl)ethyl]butanoic acid (enantiomer 2)]", "IC50": 0.62}, {"smiles": "CC(C)COc1ccc2c(C(=O)CC(CCn3nnc4ccccc4c3=O)C(=O)O)coc2c1", "note": "(racemic) [Example 104, (+/−)-4-(6-Isobutoxy-1-benzofur-3-yl)-4-oxo-2-[2-(4-oxo-1,2,3-benzotriazin-3(4H)-yl)ethyl]butanoic acid]", "IC50": 1.1}, {"smiles": "O=C(CC(CCn1nnc2ccccc2c1=O)C(=O)O)c1cc2cc(OCc3ccncc3)ccc2o1", "note": "(racemic) [Example 47, (+/−)-4-Oxo-2-[2-(4-oxo-1,2,3-benzotriazin-3(4H)-yl)ethyl]-4-[5-(pyridin-4-ylmethoxy)-1-benzofur-2-yl]butanoic acid]", "IC50": 0.94}, {"smiles": "N#CCCCCOc1ccc2oc(C(=O)CC(CCn3nnc4ccccc4c3=O)C(=O)O)cc2c1", "note": "(racemic) [Example 53, (+/−)-4-[5-(4-Cyanobutoxy)-1-benzofur-2-yl]-4-oxo-2-[2-(4-oxo-1,2,3-benzotriazin-3(4H)-yl)ethyl]butanoic acid]", "IC50": 2.9}, {"smiles": "O=C(CC(CCn1nnc2ccccc2c1=O)C(=O)O)c1cc2ccc(OCc3ccncc3)cc2s1", "note": "(racemic) [Example 123, (+/−)-4-Oxo-2-[2-(4-oxo-1,2,3-benzotriazin-3(4H)-yl)ethyl]-4-[6-(pyridin-4-ylmethoxy)-1-benzothiophen-2-yl]butanoic acid]", "IC50": 2.7}, {"smiles": "CCCCCOc1ccc2cc(C(=O)CC(CCn3nnc4ccccc4c3=O)C(=O)O)oc2c1", "note": "(single isomer, unassigned; (-)) [Example 56, (−)-4-Oxo-2-[2-(4-oxo-1,2,3-benzotriazin-3(4H)-yl)ethyl]-4-[6-(pentyloxy)-1-benzofur-2-yl]butanoic acid]", "IC50": 1400}, {"smiles": "CCCCCCCOc1ccc2cc(C(=O)CC(CCn3nnc4ccccc4c3=O)C(=O)O)oc2c1", "note": "(racemic) [Example 67, (+/−)-4-[6-(Heptyloxy)-1-benzofur-2-yl]-4-oxo-2-[2-(4-oxo-1,2,3-benzotriazin-3(4H)-yl)ethyl]butanoic acid]", "IC50": 3.8}, {"smiles": "CCCCCOc1ccc2c(C(=O)CC(CCn3nnc4ccccc4c3=O)C(=O)O)coc2c1", "note": "(single isomer, unassigned) [Example 90, 4-Oxo-2-[2-(4-oxo-1,2,3-benzotriazin-3(4H)-yl)ethyl]-4-[6-(pentyloxy)-1-benzofur-3-yl]butanoic acid]", "IC50": 81}, {"smiles": "O=C(CC(CCn1nnc2ccccc2c1=O)C(=O)O)c1coc2cc(OCCC3CCCCC3)ccc12", "note": "(racemic) [Example 76, (+/−)-4-[6-(2-Cyclohexylethoxy)-1-benzofur-3-yl]-4-oxo-2-[2-(4-oxo-1,2,3-benzotriazin-3(4H)-yl)ethyl]butanoic acid]", "IC50": 0.66}, {"smiles": "N#CCCCOc1ccc2oc(C(=O)CC(CCn3nnc4ccccc4c3=O)C(=O)O)cc2c1", "note": "(racemic) [Example 15, (+/−)-4-[5-(3-Cyanopropoxy)-1-benzofur-2-yl]-4-oxo-2-[2-(4-oxo-1,2,3-benzotriazin-3(4H)-yl)ethyl]butanoic acid]", "IC50": 4.8}, {"smiles": "O=C(CC(CCn1nnc2ccccc2c1=O)C(=O)O)c1coc2cc(OCc3ccc(Cl)c(Cl)c3)ccc12", "note": "(racemic) [Example 92, (+/−)-4-{6-[(3,4-Dichlorobenzyl)oxy]-1-benzofur-3-yl}-4-oxo-2-[2-(4-oxo-1,2,3-benzotriazin-3(4H)-yl)ethyl]butanoic acid]", "IC50": 1.3}, {"smiles": "CCCCCCCOc1ccc2c(C(=O)CC(CCn3nnc4ccccc4c3=O)C(=O)O)coc2c1", "note": "(single isomer, unassigned; (-)) [Example 102, (−)-4-[6-(Heptyloxy)-1-benzofur-3-yl]-4-oxo-2-[2-(4-oxo-1,2,3-benzotriazin-3(4H)-yl)ethyl]butanoic acid]", "IC50": 2100}, {"smiles": "O=C(CC(CCn1nnc2ccc(C(F)(F)F)cc2c1=O)C(=O)O)c1cc2ccc(OCC3CC3)cc2s1", "note": "(single isomer, unassigned; enantiomer 1) [Example 129, 4-[6-(Cyclopropylmethoxy)-1-benzothiophen-2-yl]-4-oxo-2-{2-[4-oxo-6-(trifluoromethyl)-1,2,3-benzotriazin-3(4H)-yl]ethyl}butanoic acid (enantiomer 1)]", "IC50": 13}, {"smiles": "O=C(CC(CCn1nnc2ccccc2c1=O)C(=O)O)c1cc2ccc(OCCC3CCOCC3)cc2o1", "note": "(racemic) [Example 54, (+/−)-4-Oxo-2-[2-(4-oxo-1,2,3-benzotriazin-3(4H)-yl)ethyl]-4-{6-[2-(tetrahydro-2H-pyran-4-yl)ethoxy]-1-benzofur-2-yl}butanoic acid]", "IC50": 5.6}, {"smiles": "O=C(CC(CCn1nnc2ccccc2c1=O)C(=O)O)c1cc2cc(OCc3ccc4nonc4c3)ccc2o1", "note": "(racemic) [Example 36, (+/−)-4-[5-(2,1,3-Benzoxadiazol-5-ylmethoxy)-1-benzofur-2-yl]-4-oxo-2-[2-(4-oxo-1,2,3-benzotriazin-3(4H)-yl)ethyl]butanoic acid]", "IC50": 0.33}, {"smiles": "CC(C)CCCOc1ccc2oc(C(=O)CC(CCn3nnc4ccccc4c3=O)C(=O)O)cc2c1", "note": "(racemic) [Example 40, (+/−)-4-{5-[(4-Methylpentyl)oxy]-1-benzofur-2-yl}-4-oxo-2-[2-(4-oxo-1,2,3-benzotriazin-3(4H)-yl)ethyl]butanoic acid]", "IC50": 4.6}]}]}
